Columns and labels:
Test in all cases: drug sensitivity score (DSS), CellTiter-Glo (DSS (AUC-based score)); higher = stronger drug effect (viability inhibition or cytotoxicity); extreme values may be limits of the assay
Details in all cases: incubation time: 72 h
BT-474 = tested on: BT-474
Summary of the method: (§1)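 Breast cancer cell lines (20 µl suspension) were seeded into 384-well plates holding compound at 5 concentrations in 10-fold steps over a compound-specific 10,000-fold range, then incubated 72 h. CellTox Green fluorescence (485/520 nm) was read first, then CellTiter-Glo luminescence after 10 min at room temperature. Each plate was normalised to 0.1 % DMSO and a positive kill control. The drug sensitivity score was calculated from the area under the fitted dose-response curve.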

BT-549 = tested on: BT-549
Summary of the method: as §1

CAL-120 = tested on: CAL-120
Summary of the method: as §1

CAL-148 = tested on: CAL-148
Summary of the method: as §1

CAL-51 = tested on: CAL-51
Summary of the method: as §1

CAL-85-1 = tested on: CAL-85-1
Summary of the method: as §1

DU-4475 = tested on: DU-4475
Summary of the method: as §1

HCC1143 = tested on: HCC1143
Summary of the method: as §1

HCC1599 = tested on: HCC1599
Summary of the method: as §1

HCC1937 = tested on: HCC1937
Summary of the method: as §1

HDQ-P1 = tested on: HDQ-P1
Summary of the method: as §1

Hs578T = tested on: Hs578T
Summary of the method: as §1

MCF-10A = tested on: MCF-10A
Summary of the method: as §1

MDA-MB-231 = tested on: MDA-MB-231
Summary of the method: as §1

MDA-MB-436 = tested on: MDA-MB-436
Summary of the method: as §1

MDA-MB-453 = tested on: MDA-MB-453
Summary of the method: as §1

MDA-MB-468 = tested on: MDA-MB-468
Summary of the method: as §1

MFM-223 = tested on: MFM-223
Summary of the method: as §1

SK-BR-3 = tested on: SK-BR-3
Summary of the method: as §1

| SMILES | drug sensitivity score (BT-474) | drug sensitivity score (BT-549) | drug sensitivity score (CAL-120) | drug sensitivity score (CAL-148) | drug sensitivity score (CAL-51) | drug sensitivity score (CAL-85-1) | drug sensitivity score (DU-4475) | drug sensitivity score (HCC1143) | drug sensitivity score (HCC1599) | drug sensitivity score (HCC1937) | drug sensitivity score (HDQ-P1) | drug sensitivity score (Hs578T) | drug sensitivity score (MCF-10A) | drug sensitivity score (MDA-MB-231) | drug sensitivity score (MDA-MB-436) | drug sensitivity score (MDA-MB-453) | drug sensitivity score (MDA-MB-468) | drug sensitivity score (MFM-223) | drug sensitivity score (SK-BR-3) |
| --- | --- | --- | --- | --- | --- | --- | --- | --- | --- | --- | --- | --- | --- | --- | --- | --- | --- | --- | --- |
| O=C(NC[C@H](O)CO)c1ccncc1Nc1ccc(I)cc1F [Pimasertib] | 7.07 | 0.686 | 5.16 | 3.19 | 5.03 | 8.66 | 32.3 | 0 | 0 | 2.69 | 13 | 2.79 | 21.9 | 6.34 | 0.481 | 0 | 0 | 1.68 | 2.74 |
| O=C(CCBr)N1CCN(C(=O)CCBr)CC1 [Pipobroman] | 0 | 0 | 0 | 0 | 1.64 | 0 | 0 | 0 | 0 | 0 | 0 | 0 | 0 | 0 | 0 | 0 | 0 | 0 | 0 |
| c1cc(CN2CCCNCCNCCCNCC2)ccc1CN1CCCNCCNCCCNCC1 [Plerixafor] | 0 | 0 | 0 | 0 | 0 | 0 | 0 | 0 | 0 | 0 | 0 | 0 | 0 | 0 | 0 | 0 | 0 | 0 | 0 |
| C[C@]12C=CC(=O)C=C1CC[C@@H]1[C@@H]2[C@@H](O)C[C@@]2(C)[C@H]1CC[C@]2(O)C(=O)CO [Prednisolone] | 0 | 0 | 5.1 | 0 | 0 | 0 | 0 | 0 | 0 | 0 | 2.08 | 0 | 0 | 0 | 0 | 0 | 0 | 0 | 0 |
| Cn1cc(CNCC2CCN(c3ncc(C(=O)NO)cn3)CC2)c2ccccc21 [Quisinostat] | 13.7 | 11.9 | 12.3 | 18.3 | 12.1 | 16.4 | 16.2 | 16.7 | 12.5 | 8.41 | 10.3 | 13.7 | 11.5 | 13.2 | 9.76 | 23.3 | 13.6 | 9.28 | 19.3 |
| CC(C)N(CCCNC(=O)Nc1ccc(C(C)(C)C)cc1)C[C@H]1O[C@@H](n2cc(Br)c3c(N)ncnc32)[C@H](O)[C@@H]1O [SGC0946] | 0 | 0 | 0 | 0 | 0 | 0 | 0 | 0 | 0 | 0 | 0 | 0 | 0 | 0 | 0 | 0 | 2.46 | 0 | 0 |
| CNC(=O)c1cc(Oc2ccc(NC(=O)Nc3ccc(Cl)c(C(F)(F)F)c3)cc2)ccn1 [Sorafenib] | 0 | 0 | 0 | 0 | 0 | 0 | 0 | 0 | 0 | 0 | 0 | 0 | 0 | 0 | 0 | 0 | 0 | 0 | 0 |
| CCN(CC)CCNC(=O)c1c(C)[nH]c(/C=C2\C(=O)Nc3ccc(F)cc32)c1C [Sunitinib] | 0 | 0 | 0 | 0 | 0 | 0 | 0 | 0 | 0 | 0 | 0 | 0 | 0 | 0 | 0 | 0 | 0 | 0 | 0 |
| CC[C@@]1(O)C(=O)OCc2c1cc1n(c2=O)Cc2cc3c(CN(C)C)c(O)ccc3nc2-1 [Topotecan] | 3.82 | 10.8 | 5.11 | 18.7 | 11 | 11.1 | 14.6 | 9.67 | 18.3 | 6.32 | 0 | 1.55 | 4.97 | 4.13 | 13.6 | 5.74 | 20.8 | 0 | 14.1 |

From the supplement of paper PMC4862054
